One series has as its system internal carotid artery. In words: cerebral blood flow in the internal carotid artery of anaesthetized dogs (vasodilating effect). It counts as in vivo. As to conditions: 1 mg/kg of body-weight intravenous, chloralose-pentobarbital anaesthetized dogs. The procedure:
(§1) The vasodilating effect was studied in dogs anaesthetized by a chloralose-pentobarbital mixture. […] Electromagnetic flow meters were used for measuring the blood flow. The substances under test were intravenously administered in a dose of 1 mg/kg of body-weight to 6 dogs and the percentage changes of the parameters measured were evaluated. Ethyl (+)-apovincamate, a commonly used therapeutic cerebral vasodilator was employed as reference drug.

The test system of another series is femoral artery. In words: extremital blood flow in the femoral artery of anaesthetized dogs (vasodilating effect). It counts as in vivo. As to conditions: 1 mg/kg of body-weight intravenous, chloralose-pentobarbital anaesthetized dogs. The procedure:
as §1

For series [1], the system named is isolated guinea pig ileum. In words: Inhibition of barium-chloride-induced contraction of guinea pig ileum (spasmolytic activity). As to conditions: for IC50: Cavia porcellus, read-out: ED50, inhibition of barium-chloride-induced contraction of guinea pig ileum. Here is the method: The spasmolytic activity of the compounds was determined by using the traditional method, i.e. on the isolated guinea pig ileum [Magnus, R., Pflugers Arch. 102, 123 (1904)]. Papaverine and ethyl (+)-apovincamate used as therapeutic spasmolytics were used as reference drugs.

The subject of series [2] is conscious mice under normobaric hypoxia. In words: antihypoxic activity on conscious mice under normobaric hypoxia. It counts as in vivo. As to conditions: 50 mg/kg i.p.; for Time of survival, % / Time of survival, Mean ± deviation: 96% nitrogen and 4% oxygen; for Time of survival, %: increase over control; for Time of survival, Mean ± deviation: 30 minutes before, control 6.0 ± 1.04 min; for Protection: protected = alive for twofold time of untreated animals. The procedure:
According to one method, the antihypoxic activity was studied on conscious mice under normobaric hypoxia. Five male mice were placed in a glass cylinder of 3 liters volume flown through by a gas mixture containing 96% of nitrogen and 4% of oxygen. The time interval from the allocation up to the perishment of the animals was measured for 15 minutes as a maximum. The animals were considered as protected when they were alive for a twofold time length as compared to the time of perishment of the untreated animals. The compounds under test were intraperitoneally administered to 10 animals each in a dose of 50 mg/kg of body-weight 30 minutes before allocating in the glass cylinder.

The nature of series [3]: in vivo. As to conditions: po. The procedure: On using the muscle incoordination model (rotarod method) [H. Kwibara et al.: Japan J. Pharmacol. 27, 117 (1977)], after a previous training the animals were selected which could […] for 120 seconds on a horizontal rod of 20 mm in diameter rotating with 12 rpm. A muscle-incoordinating action was stated when the animals fell down from the rotating rod within the time limits.

The nature of a further series: hypobaric hypoxia test. The series is classed as in vivo. As to conditions: 1 h; oral, one hour before, 170 Hgmm; protected = survival longer by 100% than control. The procedure:
(§2) According to the hypobaric hypoxia test [Baumel J. et al.: Proc. Soc. Bio. N.Y. 132, 629 (1969)], the animals were starved for 16 hours, then treated orally and one hour following the treatment they were allocated in an exsiccator where the pressure was decreased to 170 Hgmm within 20 seconds. The time of survival was registered from this time point up to the last respiration. The animals were considered as protected when they were alive for a time longer by 100% than the average time of survival of the control group. The ED50 value (i.e. the dose which was effective in 50%) was calculated from the percentage of the protected animals by using the probit analysis method.

The nature of another series: asphyxic anoxia test. It counts as in vivo. As to conditions: 1 h; oral, one hour before; protected = survival longer by 30% than control. The procedure:
According to the asphyxic anoxia test [Caillard O. et al.: Life Sci. 16, 1607 (1975(], the animals were starved for 16 hours, then treated orally, and one hour following the treatment they were allocated in tightly closed glass bottles of 100 ml volume. The time of survival was registered as the time interval from closing the bottle up to the last respiration. The animals were considered as protected when they were alive for a time longer by 30% than the average time of survival of the control group.
as §2

Series [4] relates to mice. In words: metrazole seizure method (anticonvulsive). It counts as in vivo. As to conditions: Mus musculus, po; 125 mg/kg s.c. pentylenetetrazole; p.o.; read-out: Anticonvulsive effect, Metrazole seizure ED50. The procedure:
On using the metrazole seizure method [Everett, G. M. and Richards, R. K.: J. Pharmacol. Exp. Ther., 81, 402 (1944)], a subcutaneous dose of 125 mg/kg of pentylenetetrazole was administered to mice after pre-treatment. The persistant clonic convulsions as well as the tonic extensory convulsions abolished by the treatment were registered.

A short description of series [5]: in vivo. The arrangement: species or system mice. As to conditions: mouse, po. From the text: On determining the muscle relaxant activity (traction test), male mice weighing 18 to 22 g were suspended by their upper legs on a horizontal wire of 5 mm in diameter.
For series [6], the system named is mice. In words: maximal electroshock model (anticonvulsive). It counts as in vivo. As to conditions: Mus musculus, po; 20 mA, 0.2 sec.; p.o.; read-out: Anticonvulsive effect, Max. electroshock ED50. From the text:
On using the maximal electroshock model [Swinyard E. A. et at.: J. Pharmacol. Exp. Ther. 106, 319 (1959)], a shock (20 mA, 0.2 sec. HSE Shock Equipment Type 207) was given to mice weighing 22 to 24 g by using corneal electrodes. The animals were considered as protected the tonic extension of the lower extremities of which were abolished.

The mark [7] stands for this setting: isolated guinea pig ileum, barium chloride.

In brackets after ≈: the same amount, converted by molar mass. Where a name gives a salt, the structure may show the parent alone. Read-outs that look alike come from different tables or passages of the source.

In the case of `CCC12C=C(C(=O)OCCO)n3c4c(c5c([N+](=O)[O-])cccc53)CCN(CCC1)C42` (single isomer, unassigned) [2-Hydroxyethyl 9-nitroapovincamate, 2-hydroxyethyl 9-nitroapovincamate], the “Circulatory effects (change in %): Carotid artery flow” value in the series with internal carotid artery is given as “+45%”. For the same molecule, the “Circulatory effects (change in %): Femoral flow” value in the series on femoral artery is recorded as “+10%”.
On to `CCOC(=O)C1=CC2(CC)CCCN3CCc4c(n1c1cccc([N+](=O)[O-])c41)C32` (single isomer, unassigned) [Ethyl 9-nitroapovincamate, ethyl 9-nitroapovincamate], for which the IC50 in series [1] (setting [7]) is 1 µg/mL (≈ 2.53 µM). The “Circulatory effects (change in %): Carotid artery flow” value in the series on internal carotid artery is “+95%”. In addition, in the series with femoral artery, the “Circulatory effects (change in %): Femoral flow” value is 0%. Further, in [2], the “Time of survival, %” value stood at 123%; the “Time of survival, Mean ± deviation” value stood at 13.4 ± 2.37 min; the Protection came to 80%.
Regarding `CCOC(=O)C1=CC2(CC)CCCN3CCc4c(n1c1cc([N+](=O)[O-])ccc41)C32` (single isomer, unassigned) [Ethyl 11-nitroapovincamate, ethyl 11-nitroapovincamate], in [2], the “Time of survival, %” value is 83%; the “Time of survival, Mean ± deviation” value was determined as 11.0 ± 3.35 min; the Protection worked out at 50%.
With `CCOC(=O)C1=CC2(CC)CCCN3CCc4c(n1c1cccc([N+](=O)[O-])c41)C32` (single isomer, unassigned) [ethyl 9-nitroapovincamate monohydrochloride], the TD50 in “in vivo [3]” and in “in vivo [5]” was more than 180 mg/kg throughout. The ED50 in “hypobaric hypoxia test” was more than 50 mg/kg; in the series “asphyxic anoxia test”, 42.7 mg/kg; with mice [4], 27.6 mg/kg; in the series with mice [6] it was 25.6 mg/kg.
Turning to `CCOC(=O)C1=C[C@]2(CC)CCCN3CCc4c(n1c1ccccc41)[C@@H]32` [Ethyl (+)-apovincamate, reference compound], the IC50 in series [1] (setting [7]) is 2 µg/mL (≈ 5.71 µM). In the series with internal carotid artery, the “Circulatory effects (change in %): Carotid artery flow” value is given as “+30%”. This molecule yielded an ED50 in “hypobaric hypoxia test” of more than 50 mg/kg. This molecule yielded an ED50 in the series “asphyxic anoxia test” of more than 50 mg/kg. Further, in the series on femoral artery, the “Circulatory effects (change in %): Femoral flow” value was “+15%”. Moreover, in [2], the “Time of survival, %” value is listed as 7% and the “Time of survival, Mean ± deviation” value is 6.4 ± 1.58 min.
In turn, `CCC1(c2ccccc2)NC(=O)N(C)C1=O` (centres unmarked) [Mephenytoin] yielded a TD50 in “in vivo [3]” of 78.6 mg/kg. Moreover, the ED50 in the series “hypobaric hypoxia test” and in “asphyxic anoxia test” was more than 80 mg/kg throughout.
For the molecule `COc1ccc(Cc2nccc3cc(OC)c(OC)cc23)cc1OC` [Papaverine, reference compound], in series [1], the IC50 stood at 5.4 µg/mL (≈ 15.9 µM).
In the case of `CCCOC(=O)C1=C[C@]2(CC)CCCN3CCc4c(n1c1cccc([N+](=O)[O-])c41)[C@@H]32` [Propyl 9-nitroapovincamate], the “ED50, inhibition of barium-chloride-induced contraction of guinea pig ileum” value in series [1] (setting [7]) amounted to 0.2 µg/mL.
Regarding `CC[C@]12CCCN3CCc4c(n(c5ccccc45)[C@@](O)(C(=O)OC)C1)[C@@H]32` [Vincamine, reference compound], in series [2], the “Time of survival, %” value worked out at 2% and the “Time of survival, Mean ± deviation” value turned out to be 6.1 ± 1.30 min.
For Acetoxyethyl 9-nitroapovincamate, the “ED50, inhibition of barium-chloride-induced contraction of guinea pig ileum” value in series [1] (setting [7]) stood at 0.4 µg/mL. In series [2], the “Time of survival, %” value turned out to be 68%; the “Time of survival, Mean ± deviation” value is 10.1 ± 3.51 min; the Protection is on record as 30%.

Broadly, the ED50 is the dose at which the effect has come halfway, by size or by number of responders.
